Columns and labels:
[1] = tested on: participants with PTSD of moderate or greater severity; experiment: MAPP2 Phase 3: CAPS-5 total severity score; type: in vivo, human; conditions: for Change from Baseline in CAPS-5 Total Severity Score, LS Mean for Treatment Difference / Change from Baseline in CAPS-5 Total Severity Score, LS Mean / CAPS-5 Total Severity Score, Mean / CAPS-5 Total Severity Score, Median / Change from Baseline in CAPS-5 Total Severity Score, Mean / Change from Baseline in CAPS-5 Total Severity Score, Median / Loss of Diagnosis, % / Non-Responder, % / Remission, % / Responder (10-point reduction in CAPS-5 Total Severity Score), %: MAPP2, mITT; for Change from Baseline in CAPS-5 Total Severity Score, LS Mean for Treatment Difference: vs placebo; for Change from Baseline in CAPS-5 Total Severity Score, LS Mean / CAPS-5 Total Severity Score, Mean / CAPS-5 Total Severity Score, Median / Change from Baseline in CAPS-5 Total Severity Score, Mean / Change from Baseline in CAPS-5 Total Severity Score, Median: de jure
Description: FIG. 36 and FIG. 37 show the time course of improvement in Clinician Administered PTSD Scale for DSM-5 (CAPS-5) total severity score versus placebo. Each show a treatment difference between MDMA and placebo after 3 medication sessions with psychological intervention. […] Between the second and third treatment sessions, the difference between the groups appeared to continue to increase in both studies. The primary efficacy measure was change from baseline in the CAPS-5 total severity score at 18 weeks, which was evaluated 2 months after the final dosing session. The CAPS-5 is a 30-item, clinician-rated scale used to assess severity of PTSD symptoms and diagnostic status according to DSM-5 criteria, as described herein. Scores on the CAPS 5 range from 0 to 80, with higher scores indicating more severe PTSD symptoms. In both studies, a secondary efficacy measure was change from baseline in Sheehan Disability Scale (SDS) mean item scores at 18 weeks. The modified SDS is a 3-item, clinician-rated scale measuring the degree of functional impairment in work, family, and social life. Scores on the SDS mean items range from 0 to 10, with higher scores indicating more functional impairment. In these studies, the efficacy assessments were administered by blinded independent raters 18 to 30 days after medication sessions 1 and 2.
(§1) MAPP2 was a Phase 3 randomized, placebo-controlled, 2-arm, double-blind, multi-site study conducted to investigate the efficacy and safety of MDMA-AT in participants with PTSD of moderate or greater severity. This study included 3 experimental sessions of therapy combined with either MDMA or placebo. During Experimental Session 1, participants received a split dose of 120 mg (80 mg+40 mg). Participants received an escalated split dose of 180 mg during Experimental Sessions 2 and 3 unless there were tolerability issues or the participant declined.
The primary outcome measure, the CAPS-5, evaluated changes in PTSD symptom severity and the secondary outcome measure, the SDS, evaluated changes in functional impairment. Both measures were assessed by a blinded centralized language-specific IR pool.
A de jure estimand of treatment efficacy was used to estimate the causal effect of MDMA-AT on PTSD symptom severity as measured by the change from Baseline to Visit 19 in CAPS-5 total severity scores in the mITT analysis set. […] Differences in treatment effect among demographic, dissociative sub-type, and overnight stay subgroups were not observed.

[2] = tested on: participants with PTSD of moderate or greater severity; experiment: MAPP2 Phase 3: safety, adverse events; type: in vivo, human
Method: as §1
Overall, 102 (98.1%) participants reported at least 1 TEAE during the study period (Table 52riod (Table 52riod (Table 52). Of these, 2 (3.9%) participants from the placebo group were discontinued due to TEAE (abdominal pain and suicidal ideation). There were no serious TEAEs or deaths reported during the study. Adverse events of special interest included a subset of AEs involving cardiac function, suicidality, and MDMA abuse. There were 6 (11.3%) participants in the MDMA group and 3 (5.9%) participants in the placebo group with an TEAE of special interest. AESIs related to suicidality were reported in 2 MDMA participants and 2 placebo participants. AESIs related to cardiac function were reported in 4 MDMA participants and 1 placebo participant (all palpitations). […] A listing of all TEAEs from MDMA-AT group with ≥5% incidence and twice the prevalence of placebo group is provided below in Table 44 Table 44 Table 44.

[3] = target: MATE1 (Homo sapiens, UniProt Q96FL8); experiment: Transporter inhibition, MATE1; conditions: at supratherapeutic concentrations
MATE1, sequence (Q96FL8 whole entry): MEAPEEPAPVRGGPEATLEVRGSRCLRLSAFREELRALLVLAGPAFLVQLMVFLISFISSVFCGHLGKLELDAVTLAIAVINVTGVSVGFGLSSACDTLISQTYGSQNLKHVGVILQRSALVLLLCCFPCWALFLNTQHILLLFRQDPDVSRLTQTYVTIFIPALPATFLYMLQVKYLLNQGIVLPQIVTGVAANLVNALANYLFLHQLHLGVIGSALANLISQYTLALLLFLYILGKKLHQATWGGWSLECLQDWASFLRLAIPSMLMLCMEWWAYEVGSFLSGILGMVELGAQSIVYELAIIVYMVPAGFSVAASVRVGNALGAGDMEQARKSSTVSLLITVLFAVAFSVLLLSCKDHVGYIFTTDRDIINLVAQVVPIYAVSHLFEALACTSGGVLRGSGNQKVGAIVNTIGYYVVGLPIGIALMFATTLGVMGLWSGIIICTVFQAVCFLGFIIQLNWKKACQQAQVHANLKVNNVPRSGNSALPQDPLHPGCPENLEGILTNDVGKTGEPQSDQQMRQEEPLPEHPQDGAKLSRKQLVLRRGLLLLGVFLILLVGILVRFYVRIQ

[4] = target: OATP1B1 (Homo sapiens, UniProt Q9Y6L6); experiment: Transporter inhibition, OATP1B1
OATP1B1, sequence (Q9Y6L6 whole entry): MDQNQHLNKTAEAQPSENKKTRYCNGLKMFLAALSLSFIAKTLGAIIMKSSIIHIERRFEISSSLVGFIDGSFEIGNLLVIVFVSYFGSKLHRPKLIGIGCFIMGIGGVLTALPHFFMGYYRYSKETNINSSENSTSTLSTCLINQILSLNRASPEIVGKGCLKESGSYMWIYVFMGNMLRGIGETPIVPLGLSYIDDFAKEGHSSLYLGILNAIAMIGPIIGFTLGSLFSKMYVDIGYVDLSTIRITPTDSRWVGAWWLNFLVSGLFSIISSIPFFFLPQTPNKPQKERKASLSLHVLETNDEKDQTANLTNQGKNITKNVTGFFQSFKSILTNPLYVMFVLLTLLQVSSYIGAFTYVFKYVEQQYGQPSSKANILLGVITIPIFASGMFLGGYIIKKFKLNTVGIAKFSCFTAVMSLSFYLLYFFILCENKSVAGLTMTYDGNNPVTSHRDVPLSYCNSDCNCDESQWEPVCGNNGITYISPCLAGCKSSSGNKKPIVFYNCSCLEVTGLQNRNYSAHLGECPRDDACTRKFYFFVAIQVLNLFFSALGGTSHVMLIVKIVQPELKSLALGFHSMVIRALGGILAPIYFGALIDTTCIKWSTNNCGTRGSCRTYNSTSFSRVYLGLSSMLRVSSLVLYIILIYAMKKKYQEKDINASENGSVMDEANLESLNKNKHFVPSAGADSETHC

[5] = target: OATP1B3 (Homo sapiens, UniProt Q9NPD5); experiment: Transporter substrate assessment, OATP1B3
OATP1B3, sequence (Q9NPD5 whole entry): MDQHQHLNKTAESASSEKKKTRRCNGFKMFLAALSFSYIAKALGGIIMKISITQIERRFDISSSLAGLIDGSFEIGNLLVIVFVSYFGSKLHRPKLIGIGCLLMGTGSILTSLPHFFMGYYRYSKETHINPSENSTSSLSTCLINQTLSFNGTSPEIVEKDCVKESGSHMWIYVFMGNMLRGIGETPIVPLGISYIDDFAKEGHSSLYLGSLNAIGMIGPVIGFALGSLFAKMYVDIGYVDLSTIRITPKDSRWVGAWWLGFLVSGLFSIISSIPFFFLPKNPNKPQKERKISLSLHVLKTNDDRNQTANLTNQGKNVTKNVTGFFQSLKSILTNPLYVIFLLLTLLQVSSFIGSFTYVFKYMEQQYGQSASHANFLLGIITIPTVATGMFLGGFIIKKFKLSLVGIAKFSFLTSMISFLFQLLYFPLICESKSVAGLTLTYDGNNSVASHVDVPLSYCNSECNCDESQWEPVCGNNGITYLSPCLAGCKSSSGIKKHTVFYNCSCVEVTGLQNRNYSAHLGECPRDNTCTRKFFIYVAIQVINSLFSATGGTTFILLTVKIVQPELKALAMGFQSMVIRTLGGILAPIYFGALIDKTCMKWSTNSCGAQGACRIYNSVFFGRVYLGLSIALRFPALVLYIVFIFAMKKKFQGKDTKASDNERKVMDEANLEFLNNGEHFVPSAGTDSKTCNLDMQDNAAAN

[6] = tested on: rats; experiment: 28-day repeat-dose toxicity, weekly oral, rats; conditions: any dose
[7] = Baseline to Primary Outcome T4 (Visit 19)
[8] = Primary Outcome CAPS-5 T4 (Visit 19)

## CNC(C)Cc1ccc2c(c1)OCO2 (stereo not shown) [MDMA, 3,4-methylenedioxymethamphetamine]
[1]; FIG. 36 and FIG. 37, both studies
  onset of treatment efficacy (CAPS-5 versus placebo): after the second session
[1]; MMRM, T2 (Visit 8)
  Change from Baseline in CAPS-5 Total Severity Score, LS Mean for Treatment Difference: −4.14
[1]; MMRM, T3 (Visit 13)
  Change from Baseline in CAPS-5 Total Severity Score, LS Mean for Treatment Difference: −7.98
[1]; MMRM, T4 (Visit 19)
  Change from Baseline in CAPS-5 Total Severity Score, LS Mean for Treatment Difference: −8.91
[1]; MMRM, Baseline to Primary Outcome T4 (Visit 19)
  Change from Baseline in CAPS-5 Total Severity Score, LS Mean: −23.69
[1]; MMRM, Baseline to T2 (Visit 8)
  Change from Baseline in CAPS-5 Total Severity Score, LS Mean: −11.36
[1]; MMRM, Baseline to T3 (Visit 13)
  Change from Baseline in CAPS-5 Total Severity Score, LS Mean: −18.58
[1]; Baseline CAPS-5 T1 (Visit 3)
  CAPS-5 Total Severity Score, Mean: 39.4
  CAPS-5 Total Severity Score, Median: 39.0
[1]; [7]
  Change from Baseline in CAPS-5 Total Severity Score, Mean: −23.5
  Change from Baseline in CAPS-5 Total Severity Score, Median: −25.0
[1]; Baseline to T2 (Visit 8)
  Change from Baseline in CAPS-5 Total Severity Score, Mean: −11.3
  Change from Baseline in CAPS-5 Total Severity Score, Median: −12.0
[1]; Baseline to T3 (Visit 13)
  Change from Baseline in CAPS-5 Total Severity Score, Mean: −18.5
  Change from Baseline in CAPS-5 Total Severity Score, Median: −20.0
[1]; CAPS-5 T2 (Visit 8)
  CAPS-5 Total Severity Score, Mean: 28.1
  CAPS-5 Total Severity Score, Median: 30.0
  Loss of Diagnosis, %: (39.6) %
  Non-Responder, %: (47.2) %
  Remission, %: (9.4) %
  Responder (10-point reduction in CAPS-5 Total Severity Score), %: (52.8) %
[1]; CAPS-5 T3 (Visit 13)
  CAPS-5 Total Severity Score, Mean: 20.9
  CAPS-5 Total Severity Score, Median: 19.0
  Loss of Diagnosis, %: (60.4) %
  Non-Responder, %: (22.6) %
  Remission, %: (26.4) %
  Responder (10-point reduction in CAPS-5 Total Severity Score), %: (77.4) %
[1]; [8]
  CAPS-5 Total Severity Score, Mean: 15.8
  CAPS-5 Total Severity Score, Median: 15.5
  Loss of Diagnosis, %: (71.2) %
  Non-Responder, %: (13.5) %
  Remission, %: (46.2) %
  Responder (10-point reduction in CAPS-5 Total Severity Score), %: (86.5) %
[1]; MAPP2, MMRM, de jure estimand, mITT
  change from Baseline to Visit 19 in CAPS-5 total severity scores: −23.69
[1]; MAPP2, Visit 19
  no longer met PTSD diagnostic criteria: 71.2%
  remission (CAPS-5 ≤11 and no longer meeting PTSD diagnostic criteria): 46.2%
  responders (10-point reduction in CAPS-5 total severity score): 86.5%
[2]; MAPP2
  AESIs of MDMA abuse: no AESIs of MDMA abuse
  TEAE Abdominal pain upper, %: (9.4) %
  TEAE Bruxism, %: (13.2) %
  TEAE Chest discomfort, %: (17.0) %
  TEAE Chills, %: (15.1) %
  TEAE Decreased appetite, %: (35.8) %
  TEAE Dissociation, %: (5.7) %
  TEAE Dry mouth, %: (17.0) %
  TEAE Feeling abnormal, %: (9.4) %
  TEAE Feeling cold, %: (20.8) %
  TEAE Feeling hot, %: (26.4) %
  TEAE Feeling jittery, %: (15.1) %
  TEAE Feeling of body temperature change, %: (9.4) %
  TEAE Flushing, %: (5.7) %
  TEAE Gait disturbance, %: (5.7) %
  TEAE Heart rate increased, %: (5.7) %
  TEAE Hyperhidrosis, %: (34.0) %
  TEAE Hypoaesthesia, %: (9.4) %
  TEAE Muscle spasms, %: (7.5) %
  TEAE Muscle tightness, %: (58.8) %
  TEAE Mydriasis, %: (11.3) %
  TEAE Nausea, %: (45.3) %
  TEAE Nystagmus, %: (13.2) %
  TEAE Palpitations, %: (9.4) %
  TEAE Panic attack, %: (5.7) %
  TEAE Paraesthesia, %: (18.9) %
  TEAE Restlessness, %: (15.1) %
  TEAE Thirst, %: (7.5) %
  TEAE Tremor, %: (11.3) %
  TEAE Vision blurred, %: (15.1) %
  TEAE Visual impairment, %: (5.7) %
  participants with an TEAE of special interest: 11.3%
[2]; MAPP2, Safety Set
  At least one TEAE of Special Interest, %: (11.3) %
  At least one Treatment-emergent SAE Leading to Death, %: (0.0) %
  At least one Treatment-emergent SAE, %: (0.0) %
  Discontinued study treatment due to any TEAE(s), %: (0.0) %
  Participants with at least 1 TEAE during Experimental Sessions and 2 Days Following, %: (100.0) %
  Subjects with at least 1 Severe TEAE, %: (9.4) %
  Subjects with at least 1 TEAE, %: (100.0) %
[2]; MAPP2, dose-dependent, no clinical intervention required
  heart rate and blood pressure during experimental sessions: transient increases
[2]; MAPP2, during an experiment session or up to 2 days following
  participants with at least 1 temporally related TEAE: All participants
[3]
  inhibition of MATE1: inhibits
[4]
  inhibition of OATP1B1: not an inhibitor
[5]
  substrate of OATP1B3: not a substrate
[6]
  neurohistopathology of the brain: No morphologic changes

Reference: US20250134855A1, “CO[…] AND METHODS OF USING SAME” (LYKOS THERAPEUTICS, INC., priority 2022, published 2025)
